Reference: patent publication US11752169B2, “Treatment of pain with polysulfated polysaccharides” (PARADIGM BIOPHARMACEUTICALS LTD., priority 2018, dated 2023)

Key:
[1] = volunteers injected subcutaneously with PPS; cited from earlier work
NGF mRNA = experiment: real-time RT-PCR for NGF mRNA in osteocyte-like cultures; assay type: cell-based, human
Procedure: FIG. 23. Effects of combinations of rhTNF and PPS on NGF gene expression in osteocyte-like cultures. Human differentiated osteocyte-like cultures were either untreated or pretreated with PPS (0.1 or 1.0 μg/mL) for 24 h, then with or without rhTNFα (1 ng/mL) for a further 48 h, and then real-time RT-PCR was performed for NGF mRNA. Data are mean+SD of triplicate real-time RT-PCR reactions normalised to the mRNA expression of the housekeeping gene ACTB.
FIG. 28. Effects of combinations of rhTNF and PPS on NGF gene expression in osteocyte-like cultures. Human differentiated osteocyte-like cultures were either untreated or pretreated with PPS (0.1 or 1.0 μg/mL) for 24 h, then with or without rhTNFα (1 ng/mL) for a further 48 h, and then real-time RT-PCR was performed for NGF mRNA. Data are mean+SD of triplicate real-time RT-PCR reactions normalised to the mRNA expression of the housekeeping gene ACTB.
Cryopreserved cells from each donor (all at passage 0 or 1) were thawed and cultured for 10d in T75 cm^2 tissue culture flasks. Once confluent, cells were removed by collagenase/dispase digestion, washed by centrifugation, counted and adjusted to 5×10^5 cells/mL. Cells were then seeded into either 12-well tissue culture trays or into 8-well chamber slides, at 1×10^5 and 2×10^4 cells/well, respectively. After 24 h, media were replaced with osteogenic differentiation medium, consisting of αMEM, 5% v/v foetal calf serum (FCS), 1.8 mM potassium dihydrogen phosphate (KH2PO4), 100 μM Ascorbate-2-phosphate (As2P), 10 mM HEPES, 10^−8 M Dexamethasone and 0.2 mM L-Glutamine. During the differentiation process, samples were collected at days 3, 14 and 28 in Trizol reagent for total RNA preparation and gene expression analysis (see below). Cultures seeded into chamber slides were examined for in vitro mineralisation using the Alizarin Red staining technique, as previously described.
PPS was manufactured by bene pharmaChem GmbH & Co. KG, Geretstried, Germany. This was dissolved in sterile PBS as a stock solution at 1.0 mg/mL. Differentiated cells were either untreated or pre-treated with final concentrations of PPS at 1, 5 or 50 μg/mL in culture medium for 72 h. The tested doses of PPS were based on the effective and maximally active levels published in a previous study. Media were then replaced with the same concentrations of PPS with or without the addition of recombinant human (rh) TNFα (1 ng/mL) and then cultured for a further 48 h. Culture supernatants were collected and total RNA and cDNA prepared, as described below. This generated 8 conditions (Untreated, TNF, PPS1, PPS5, PPS50, TNF+PPS1, TNF+PPS5, TNF+PPS50) from 6 donors.
Total RNA was prepared from Trizol lysates, according to the manufacturer's instructions, with the exception that due to evidence for PPS interference in the generation of assayable cDNA, RNA precipitates were washed 3 times in 75% ethanol instead of the usual single wash step, in an attempt to remove residual PPS. RNA preparations were tested for yield and purity using a Nanodrop microvolume spectrophotometer (Thermo Fisher). One microgram of RNA from each sample was reverse transcribed using a Superscript™ II kit (Thermo Fisher), as per manufacturer's instructions. Real-time RT-PCR was performed for genes including Nerve Growth Factor (NGF), its receptors NTRK1 (TRKA) and NGFR (P75NTR), MMP13, Cyclooxygenase-2 (COX-2), Interleukin-6 (IL-6) RANKL, OPG, OCN, DMP1 and SOST, relative to housekeeping gene (18S, ACTB) expression. […]

NGF = experiment: human NGF ELISA of culture supernatants of osteocyte-like cultures; assay type: cell-based; conditions: KOA or NOF osteocyte-like cultures, PPS 1, 5 or 50 μg/mL for 72 h vs untreated
Source text: In order to maximise the clinical relevance of the findings from this study, the effects of PPS were to be tested on osteocyte-like cultures derived by differentiation in vitro for a period of 28 days from cells isolated from the subchondral bone of the proximal tibia of three patients with advanced knee OA who underwent total knee arthroplasty (TKA) surgery (KOA: Group 1). As a comparator group, cells isolated from the proximal femur of three patients who underwent total hip arthroplasty (THA) for neck of femur fracture (NOF: Group 2), were similarly differentiated and tested. The gender of all donors was female, and group were age matched, with the mean age of KOA being 77.0±8.5 years and that of the NOF group being 77.7±5.5 years (p=0.91).
Cryopreserved cells from each donor (all at passage 0 or 1) were thawed and cultured for 10d in T75 cm^2 tissue culture flasks. Once confluent, cells were removed by collagenase/dispase digestion, washed by centrifugation, counted and adjusted to 5×10^5 cells/mL. Cells were then seeded into either 12-well tissue culture trays or into 8-well chamber slides, at 1×10^5 and 2×10^4 cells/well, respectively. […]

## Sodium Pentosan Polysulfate [PPS]
[1]
  plasma concentrations of PPS: 1000 to 3000 ng/mL
NGF mRNA; KOA1 and KOA2 cultures, PPS 1 μg/mL + rhTNFα 1 ng/mL, 48 h, relative to 18S rRNA (FIG. 16)
  NGF mRNA levels, PPS in combination with rhTNFα: strongly suppressed
NGF mRNA; KOA1 and KOA2 cultures, PPS 1 μg/mL, 72 h pre-treatment + 48 h, relative to 18S rRNA (FIG. 16)
  NGF mRNA levels, PPS alone: strongly suppressed
NGF mRNA; PPS at 1 μg/mL, 24 h pre-treatment, rhTNFα 1 ng/mL 48 h, normalised to ACTB (FIG. 23)
  NGF expression (mRNA) in the presence of TNFα: significantly reduced
NGF mRNA; PPS at 1 mg/mL (so in the source), FIG. 28, normalised to ACTB
  NGF expression (mRNA) in the presence of TNFα: significantly reduced
NGF mRNA; PPS at both 0.1 and 1 μg/mL, 24 h pre-treatment + 48 h, normalised to ACTB (FIG. 23)
  basal NGF mRNA levels: no apparent effect
NGF
  secreted levels of mature NGF protein (ELISA): increased
